Test results reported in patent publication US20250057990A1, “TISSUE-SPECIFIC MANGANESE BASED MRI CONTRAST AGENTS” (CASE WESTERN RESERVE UNIVERSITY, priority 2021, published 2025).
“And” between values parts separate entries of the source, which are not always exact repeats. Equal values may be shown once. Read-outs that look alike come from different tables or passages of the source.

Tests used:
C57BL6 mice [1] = assay: 3D FLASH whole-body MRI; format: in vivo; design: key to Delta SNR: change in SNR, where SNR = s_tissue/σ_noise; details: for Delta SNR: 0.060 mmol/kg
Procedure: (§1) All animal and imaging procedures were performed according to an approved Institutional Animal Care and Use Committee protocol. Male C57BL6 mice were purchased from Jackson Labs (Bar Harbor, ME, USA), housed in an animal facility.
(§2) All imaging experiments were performed using the MRS3000 3T small animal scanner. Mice (n=5) were anesthetized with 2% isoflurane, the tail vein was cannulized with a catheter, followed by transferal to the heated mouse bed of the MRI scanner. Mice were monitored with a respiration monitor while in the scanner. Before and at 15 and 30 minutes after administration of 60 μmol/kg Mn(EOB-PC2A), mice were imaged with a T1w axial fast spin-echo sequence with respiratory gating (TR=305 ms, TE=11 ms, FOV=40×40 mm, slice thickness=1 mm, number of slices=15, Nav=4, matrix=256×248) and a 3D FLASH sequence (TR=16 ms, […], T1=1000 ms, FOV=70×35 mm, slice thickness=35 mm, number of slices=1, Nav=3, matrix=256×128, flip angle=25°). Mice underwent an additional T1w axial spin-echo and 3D FLASH acquisitions at 24 hours post-injection.
(§3) MR images were exported in DICOM format, and processed and analyzed using FIJI software (https://imagej.net/software/fiji/). The signal-to-noise ratio [stissue/σnoise] and contrast-to-noise ratio [(stissue−smuscle)/σnoise] were calculated for the relevant tissues of each mouse at every time point. Subtraction images were produced for the 3D FLASH images by first dividing the pixel values of the images of each acquisition by the scaling factor assigned by the MRS software, and then subtracting the corresponding pre-contrast baseline images from the post-contrast images. Maximum intensity projections and 3-dimensional projections were produced for the raw and subtraction 3D FLASH images in FIJI using the “Z-project” function and the “3D-project” function with interpolation, respectively.

HepG2 hepatoma cells [2] = assay: Cell uptake analysis (ICP-OES manganese content); format: cell-based; details: 2 mM, 2 hours
Procedure: Cells were plated in a 6-well plate and incubated for 1 day to adhere and proliferate. Cells were then incubated for 2 hours with 2 mM Mn(EOB-PC2A), after which they were washed three times with DPBS, trypsonized, and pelleted. Cells were resuspended in 250 μL of 75% HNO3 for 48 hours for dissolution, after which 4.75 mL distilled water was added. The samples were centrifuged at 4,000 rpm for 30 minutes to pellet any non-dissolved components and the supernatant was collected. Manganese content in the cell solution was quantified by inductively coupled plasma optical emission spectroscopy (ICP-OES 730, Agilent Technologies, Santa Clara, CA, USA).

[3] = test system: DU145 prostate cancer cells; assay: Cell viability analysis (CCK8) in DU145 cells; format: cell-based; details: 48 hours, physiologically relevant concentrations
Procedure: (§4) DU145 cells were purchased from American Type Culture Collection (ATCC, Manassas, VA, USA). HepG2 cells were kindly gifted by Dr. Zhenghong Lee at Case Western Reserve University (CWRU, Cleveland, OH, USA). All cell lines were cultured in Dulbecco's Modified Eagle's Medium (DMEM, Gibco, Amarillo, TX, USA) supplemented with 1% penicillin-streptomycin (Gibco) and 10% fetal bovine serum (Gibco) and incubated at 37° C. and 5% CO2.
(§5) Cells in culture were trypsonized and counted. In a 96-well plate, cells were seeded at 5,000 cells per well and incubated for 1 day to adhere and proliferate. Cells were then incubated with increasing concentrations of the liver-targeted MBCA for 48 hours. To measure cell viability, a CCK8 assay was performed according to the manufacturer's instructions (Dojindo Molecular Technologies, Inc., Kumamoto, JP). Percent cell viability was calculated as the signal intensity of the treated well divided by the signal intensity of the untreated control wells after accounting for background signal.

C57BL6 mice [4] = assay: T1-weighted axial fast spin-echo MRI of the liver; format: in vivo; details: 0.060 mmol/kg i.v.
Procedure: as §1, §2, §3

HepG2 hepatoma cells [5] = assay: Cell viability analysis (CCK8) in HepG2 cells; format: cell-based; details: 48 hours, physiologically relevant concentrations
Procedure: as §4, §5

[6] = Relaxivity measurements of Mn(EOB-PC2A) in DPBS; format: physicochemical
Procedure: (§6) Solutions of Mn(EOB-PC2A) were prepared in DPBS or saline containing 4.5% human serum albumin. The T1 and T2 relaxation times at 1.5T were measured using a Bruker Minispec Relaxometer ([…], 37° C.; Bruker, Billerica, MA, USA). The T1 relaxation times were also measured at 3T using an MRS3000 3T small animal scanner from MR solutions (MR Solutions, Surrey, UK) with a T1 mapping sequence (TR=10 ms, TE=4 ms, T1=50 ms, FOV=40×40 mm, slice thickness=2 mm, number of slices=1, Nav=1, matrix=256×128, flip angle=8°). The r1 and r2 relaxivities were calculated as the slope of the 1/T1 and 1/T2 vs. Mn concentration, respectively.

[7] = Relaxivity measurements of Mn(EOB-PC2A) in saline containing 4.5% human serum albumin; format: physicochemical; details: 4.5% human serum albumin in saline, 1.5T, 37° C.
Procedure: as §6

[8] = from literature, cited from earlier work
[9] = from literature, cited from earlier work; remark: listed apart in the source
[10] = in vivo; cited from earlier work
[11] = 15 minutes post-injection, relative to pre-contrast baseline
[12] = 30 minutes post-injection, relative to pre-contrast baseline
[13] = 24 hours post-injection, relative to pre-contrast baseline
[14] = blood plasma (human plasma), 1.5 T

Q: Which results are given for Mn(EOB-PC2A)?
A: Delta SNR (C57BL6 mice [1]; Bladder, 15 minutes post-injection): 157.07 ± 39.02; Delta SNR (C57BL6 mice [1]; Bladder, 30 minutes post-injection): 199.96 ± 25.86; Delta SNR (C57BL6 mice [1]; Bladder, 24 hours post-injection): −2.58 ± 5.42; Delta SNR (C57BL6 mice [1]; Heart, 15 minutes post-injection): −0.04 ± 5.85; Delta SNR (C57BL6 mice [1]; Heart, 30 minutes post-injection): −2.28 ± 7.11; Delta SNR (C57BL6 mice [1]; Heart, 24 hours post-injection): 5.73 ± 16.25; Delta SNR (C57BL6 mice [1]; Kidney, 15 minutes post-injection): 27.74 ± 7.66; Delta SNR (C57BL6 mice [1]; Kidney, 30 minutes post-injection): 21.33 ± 8.28; Delta SNR (C57BL6 mice [1]; Kidney, 24 hours post-injection): 3.87 ± 5.62; Delta SNR (C57BL6 mice [1]; Liver, 15 minutes post-injection): 51.48 ± 17.20; Delta SNR (C57BL6 mice [1]; Liver, 30 minutes post-injection): 29.19 ± 14.28; Delta SNR (C57BL6 mice [1]; Liver, 24 hours post-injection): 1.36 ± 6.44; Delta SNR (C57BL6 mice [1]; Lung, 15 minutes post-injection): −0.27 ± 0.44; Delta SNR (C57BL6 mice [1]; Lung, 30 minutes post-injection): −0.41 ± 0.31; Delta SNR (C57BL6 mice [1]; Lung, 24 hours post-injection): −0.43 ± 0.71; Delta SNR (C57BL6 mice [1]; Muscle, 15 minutes post-injection): −3.63 ± 3.21; Delta SNR (C57BL6 mice [1]; Muscle, 30 minutes post-injection): −4.07 ± 5.11; Delta SNR (C57BL6 mice [1]; Muscle, 24 hours post-injection): −6.62 ± 10.13; biliary elimination (C57BL6 mice [1]; enhancement in gallbladder, particularly 30 minutes post-injection): eliminated via biliary excretion; renal elimination of unbound agent (C57BL6 mice [1]; signal enhancement in kidneys and urinary bladder, 15 and 30 minutes post-injection): rapidly excreted via renal filtration; intracellular concentration of Mn(II) relative to untreated cells (HepG2 hepatoma cells [2]): 17 times; cytotoxicity [3]: no cytotoxicity; normalized CNR of the liver (C57BL6 mice [4]; [11]): 3.20; normalized SNR of the liver (C57BL6 mice [4]; [11]): 1.41; normalized CNR of the liver (C57BL6 mice [4]; [12]): 3.12; normalized SNR of the liver (C57BL6 mice [4]; [12]): 1.42; liver CNR (C57BL6 mice [4]; [13]): 1.16; liver SNR (C57BL6 mice [4]; [13]): 0.86; washout time after injection (C57BL6 mice [4]; liver MR signal returns to pre-contrast baseline): ≤ 24 h; cytotoxicity (HepG2 hepatoma cells [5]): no cytotoxicity; r1 relaxivity Water/DPBS ([6]; 1.5T, 37° C.): 2.83 mM⁻¹ s⁻¹ and 2.8 mM⁻¹ s⁻¹; r1 relaxivity ([6]; 3 T): 2.61 mM⁻¹ s⁻¹; r1 relaxivity Plasma/Serum [7]: 5.85 mM⁻¹ s⁻¹ and 5.9 mM⁻¹ s⁻¹

Q: Which results are given for mangafodipir?
A: r1 relaxivity Water/DPBS ([8]; 1.5 T): 1.6 mM⁻¹ s⁻¹; r1 relaxivity Plasma/Serum [9, 14]: 3.6 mM⁻¹ s⁻¹

Q: What does the source list for `O=C([O-])CN(CCN(CC(=O)[O-])CC(=O)[O-])CCN(CC(=O)[O-])C(COCc1ccccc1)C(=O)[O-].[Gd+3].[H+].[H+]` (centres unmarked) [Gadobenate, gadobenate]?
A: r1 relaxivity Water/DPBS ([8]; 1.5 T): 4.0 mM⁻¹ s⁻¹; r1 relaxivity Plasma/Serum [9, 14]: 6.3 mM⁻¹ s⁻¹

Q: Which “r1 relaxivity Water/DPBS” value ([8]; water, 1.41 T) does the source give for `O=C([O-])CN1CCNCc2cccc(n2)CN(CC(=O)[O-])CC1.[Mn+2]` [Mn-3,6-PC2A] here?
A: The value was 2.4 mM⁻¹ s⁻¹.

Q: What about the “r1 relaxivity Plasma/Serum” value ([9]; Seronorm, 1.41 T) of the same compound?
A: The value was 3.0 mM⁻¹ s⁻¹.

Q: For `O=C([O-])CN1CCNCCN(CC(=O)[O-])Cc2cccc(n2)C1.[Mn+2]` [Mn-3,9-PC2A], which “r1 relaxivity Water/DPBS” value ([8]; water, 1.41 T) is on record?
A: Its value is 2.2 mM⁻¹ s⁻¹.

Q: What about the “r1 relaxivity Plasma/Serum” value ([9]; Seronorm, 1.41 T) of the same compound?
A: Its value is 3.3 mM⁻¹ s⁻¹.

Q: Which “r1 relaxivity Water/DPBS” value ([8]; 1.5 T) does the source give for `CCOc1ccc(C[C@@H](CN(CCN(CC(=O)[O-])CC(=O)[O-])CC(=O)[O-])N(CC(=O)[O-])CC(=O)[O-])cc1.[Gd+3].[H+].[H+]` [Gadoxetate, gadoxetate] here?
A: Its value is 4.7 mM⁻¹ s⁻¹.

Q: And the “time of peak enhancement after administration” value [10]?
A: The value was “around 20 minutes”.

Q: And the “r1 relaxivity Plasma/Serum” value [9, 14]?
A: The value was 6.9 mM⁻¹ s⁻¹.
